# Measurements published in patent US20170197979A1, “BENZOTHIADIAZOLAMINES” (BAYER PHARMA AKTIENGESELLSCHAFT, priority 2014, published 2017).
# Target: T1, human full-length MKNK1 (Homo sapiens, UniProt Q9BUB5, T385D)
# T1 construct: GST (N); purchased Carna Biosciences 02-145; host or cells: insect cells (baculovirus expression system)
# Assay: MKNK1 kinase high ATP assay (TR-FRET)
# Assay type: biochemical
# Details: TR-FRET, high ATP (2 mM final), 15 min preincubation with enzyme, GST-MKNK1 (T344D); read-out: MKNK1 IC50
# Description: MKNK1 Kinase High ATP Assay
# MKNK1-inhibitory activity at high ATP of compounds of the present invention after their preincubation with MKNK1 was quantified employing the TR-FRET-based MKNK1 high ATP assay as described in the following paragraphs.
# A recombinant fusion protein of Glutathione-S-Transferase (GST, N-terminally) and human full-length MKNK1 (amino acids 1-424 and T344D of accession number BAA 19885.1), expressed in insect cells using baculovirus expression system and purified via glutathione sepharose affinity chromatography, was purchased from Carna Biosciences (product no 02-145) and used as enzyme. As substrate for the kinase reaction the biotinylated peptide biotin-Ahx-IKKRKLTRRKSLKG (C-terminus in amide form) was used, which can be purchased e.g. from the company Biosyntan (Berlin-Buch, Germany).
# For the assay 50 nL of a 100 fold concentrated solution of the test compound in DMSO was pipetted into a black low volume 384 well microtiter plate (Greiner Bio-One, Frickenhausen, Germany), 2 μL of a solution of MKNK1 in aqueous assay buffer [50 mM HEPES pH 7.5, 5 mM MgCl2, 1.0 mM dithiothreitol, 0.005% (v/v) Nonidet-P40 (Sigma)] was added and the mixture was incubated for 15 min at 22° C. to allow pre-binding of the test compounds to the enzyme before the start of the kinase reaction. Then the kinase reaction was started by the addition of 3 μL of a solution of adenosine-tri-phosphate (ATP, 3.3 mM=>final conc. in the 5 μL assay volume is 2 mM) and substrate (0.1 μM=>final conc. in the 5 μL assay volume is 0.06 μM) in assay buffer and the resulting mixture was incubated for a reaction time of 30 min at 22° C. The concentration of MKNK1 was adjusted depending of the activity of the enzyme lot and was chosen appropriate to have the assay in the linear range, typical concentrations were in the range of 0.003 μg/mL. The reaction was stopped by the addition of 5 μL of a solution of TR-FRET detection reagents (5 nM streptavidine-XL665 [Cisbio Bioassays, Codolet, France] and 1 nM anti-ribosomal protein S6 (pSer236)-antibody from Invitrogen [#44921G] and 1 nM LANCE EU-W1024 labeled ProteinG [Perkin-Elmer, product no. AD0071]) in an aqueous EDTA-solution (100 mM EDTA, 0.1% (w/v) bovine serum albumin in 50 mM HEPES pH 7.5).
# The resulting mixture was incubated for 1 h at 22° C. to allow the formation of complex between the phosphorylated biotinylated peptide and the detection reagents. Subsequently the amount of phosphorylated substrate was evaluated by measurement of the resonance energy transfer from the Eu-chelate to the streptavidine-XL. Therefore, the fluorescence emissions at 620 nm and 665 nm after excitation at 350 nm were measured in a TR-FRET reader, e.g. a Rubystar (BMG Labtechnologies, Offenburg, Germany) or a Viewlux (Perkin-Elmer). The ratio of the emissions at 665 nm and at […] was taken as the measure for the amount of phosphorylated substrate. The data were normalised (enzyme reaction without inhibitor=0% inhibition, all other assay components but no enzyme=100% inhibition).
# T1 sequence (Q9BUB5 1-424 isoform Q9BUB5-2 T344D): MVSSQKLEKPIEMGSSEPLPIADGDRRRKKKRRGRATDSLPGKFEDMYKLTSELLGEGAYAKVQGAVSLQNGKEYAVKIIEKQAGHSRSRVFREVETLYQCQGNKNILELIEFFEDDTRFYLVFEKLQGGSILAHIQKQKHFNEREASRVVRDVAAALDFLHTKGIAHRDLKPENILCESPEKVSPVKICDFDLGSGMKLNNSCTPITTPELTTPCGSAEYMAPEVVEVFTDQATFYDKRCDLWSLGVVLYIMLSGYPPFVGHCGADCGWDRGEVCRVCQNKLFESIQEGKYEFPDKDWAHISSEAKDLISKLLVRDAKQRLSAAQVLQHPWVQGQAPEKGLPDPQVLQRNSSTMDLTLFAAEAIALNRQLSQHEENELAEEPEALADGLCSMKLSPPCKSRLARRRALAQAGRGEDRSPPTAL
row,SMILES,IC50 [nM]
1,"CC(C)N(C)C(=O)[C@H]1CCc2c(sc3ncnc(Nc4ccc5nnsc5c4)c23)C1 [Example 23, (7S)-4-(1,2,3-Benzothiadiazol-6-ylamino)-N-methyl-N-(propan-2-yl)-5,6,7,8-tetrahydro[1]benzothieno[2,3-d]pyrimidine-7-carboxamide]",41
2,"O=C([C@H]1CCc2c(sc3ncnc(Nc4ccc5nnsc5c4)c23)C1)N1CCC1 [Example 24, Azetidin-1-yl[(7S)-4-(1,2,3-benzothiadiazol-6-ylamino)-5,6,7,8-tetrahydro[1]benzothieno[2,3-d]pyrimidin-7-yl]methanone]",33
3,"CN(CCN)C(=O)[C@H]1CCc2c(sc3ncnc(Nc4ccc5nnsc5c4)c23)C1 [Example 25, (7S)—N-(2-Aminoethyl)-4-(1,2,3-benzothiadiazol-6-ylamino)-N-methyl-5,6,7,8-tetrahydro[1]benzothieno[2,3-d]pyrimidine-7-carboxamide]",3.2
4,"CN(CC(F)F)C(=O)[C@H]1CCc2c(sc3ncnc(Nc4ccc5nnsc5c4)c23)C1 [Example 26, (7S)-4-(1,2,3-Benzothiadiazol-6-ylamino)-N-(2,2-difluoroethyl)-N-methyl-5,6,7,8-tetrahydro[1]benzothieno[2,3-d]pyrimidine-7-carboxamide]",11
5,"CN(CC(C)(C)O)C(=O)[C@H]1CCc2c(sc3ncnc(Nc4ccc5nnsc5c4)c23)C1 [Example 27, (7S)-4-(1,2,3-Benzothiadiazol-6-ylamino)-N-(2-hydroxy-2-methylpropyl)-N-methyl-5,6,7,8-tetrahydro[1]benzothieno[2,3-d]pyrimidine-7-carboxamide]",15
6,"CCN(CCO)C(=O)[C@H]1CCc2c(sc3ncnc(Nc4ccc5nnsc5c4)c23)C1 [Example 28, (7S)-4-(1,2,3-Benzothiadiazol-6-ylamino)-N-ethyl-N-(2-hydroxyethyl)-5,6,7,8-tetrahydro[1]benzothieno[2,3-d]pyrimidine-7-carboxamide]",8.6
7,"CN(C)C(=O)CN(C)C(=O)[C@H]1CCc2c(sc3ncnc(Nc4ccc5nnsc5c4)c23)C1 [Example 29, (7S)-4-(1,2,3-Benzothiadiazol-6-ylamino)-N-[2-(dimethylamino)-2-oxoethyl]-N-methyl-5,6,7,8-tetrahydro[1]benzothieno[2,3-d]pyrimidine-7-carboxamide]",7
8,"CN(C)CCCN(C)C(=O)[C@H]1CCc2c(sc3ncnc(Nc4ccc5nnsc5c4)c23)C1 [Example 30, (7S)-4-(1,2,3-Benzothiadiazol-6-ylamino)-N-[3-(dimethylamino)propyl]-N-methyl-5,6,7,8-tetrahydro[1]benzothieno[2,3-d]pyrimidine-7-carboxamide]",8.1
9,"O=C([C@H]1CCc2c(sc3ncnc(Nc4ccc5nnsc5c4)c23)C1)N1CC(F)(F)C1 [Example 31, [(7S)-4-(1,2,3-Benzothiadiazol-6-ylamino)-5,6,7,8-tetrahydro[1]benzothieno[2,3-d]pyrimidin-7-yl](3,3-difluoroazetidin-1-yl)methanone]",14
10,"O=C([C@H]1CCc2c(sc3ncnc(Nc4ccc5nnsc5c4)c23)C1)N1CC(O)C1 [Example 32, [(7S)-4-(1,2,3-Benzothiadiazol-6-ylamino)-5,6,7,8-tetrahydro[1]benzothieno[2,3-d]pyrimidin-7-yl](3-hydroxyazetidin-1-yl)methanone]",33
11,"CC1(O)CN(C(=O)[C@H]2CCc3c(sc4ncnc(Nc5ccc6nnsc6c5)c34)C2)C1 [Example 33, [(7S)-4-(1,2,3-Benzothiadiazol-6-ylamino)-5,6,7,8-tetrahydro[1]benzothieno[2,3-d]pyrimidin-7-yl](3-hydroxy-3-methylazetidin-1-yl)methanone]",8
12,"CN1CCN(C(=O)[C@H]2CCc3c(sc4ncnc(Nc5ccc6nnsc6c5)c34)C2)CC1 [Example 34, [(7S)-4-(1,2,3-Benzothiadiazol-6-ylamino)-5,6,7,8-tetrahydro[1]benzothieno[2,3-d]pyrimidin-7-yl](4-methylpiperazin-1-yl)methanone]",13
13,"COc1cc2nnsc2cc1Nc1ncnc2sc3c(c12)CC[C@H](C(=O)N(C)C)C3 [Example 35, (7S)-4-[(5-Methoxy-1,2,3-benzothiadiazol-6-yl)amino]-N,N-dimethyl-5,6,7,8-tetrahydro[1]benzothieno[2,3-d]pyrimidine-7-carboxamide]",1.3
14,"COc1cc2nnsc2cc1Nc1ncnc2sc3c(c12)CC[C@H](C(=O)N(C)CC(C)(C)O)C3 [Example 36, (7S)—N-(2-Hydroxy-2-methylpropyl)-4-[(5-methoxy-1,2,3-benzothiadiazol-6-yl)amino]-N-methyl-5,6,7,8-tetrahydro[1]benzothieno[2,3-d]pyrimidine-7-carboxamide]",0.8
15,"COc1cc2nnsc2cc1Nc1ncnc2sc3c(c12)CC[C@H](C(=O)N(C)C(C)C)C3 [Example 37, (7S)-4-[(5-Methoxy-1,2,3-benzothiadiazol-6-yl)amino]-N-methyl-N-(propan-2-yl)-5,6,7,8-tetrahydro[1]benzothieno[2,3-d]pyrimidine-7-carboxamide]",1.2
16,"CCN(CCO)C(=O)[C@H]1CCc2c(sc3ncnc(Nc4cc5snnc5cc4OC)c23)C1 [Example 38, (7S)—N-Ethyl-N-(2-hydroxyethyl)-4-[(5-methoxy-1,2,3-benzothiadiazol-6-yl)amino]-5,6,7,8-tetrahydro[1]benzothieno[2,3-d]pyrimidine-7-carboxamide]",1.1
17,"COCCN(C)C(=O)[C@H]1CCc2c(sc3ncnc(Nc4cc5snnc5cc4OC)c23)C1 [Example 39, (7S)-4-[(5-Methoxy-1,2,3-benzothiadiazol-6-yl)amino]-N-(2-methoxyethyl)-N-methyl-5,6,7,8-tetrahydro[1]benzothieno[2,3-d]pyrimidine-7-carboxamide]",0.6
18,"COc1cc2nnsc2cc1Nc1ncnc2sc3c(c12)CC[C@H](C(=O)N(C)CCNC(=O)OC(C)(C)C)C3 [Example 40, tert-Butyl {2-[({(7S)-4-[(5-methoxy-1,2,3-benzothiadiazol-6-yl)amino]-5,6,7,8-tetrahydro[1]benzothieno[2,3-d]pyrimidin-7-yl}carbonyl)(methyl)amino]ethyl}carbamate]",0.8
19,"COc1cc2nnsc2cc1Nc1ncnc2sc3c(c12)CC[C@H](C(=O)N1CC(N(C)C)C1)C3 [Example 41, [3-(Dimethylamino)azetidin-1-yl]{(7S)-4-[(5-methoxy-1,2,3-benzothiadiazol-6-yl)amino]-5,6,7,8-tetrahydro[1]benzothieno[2,3-d]pyrimidin-7-yl}methanone]",0.6
20,"COc1cc2nnsc2cc1Nc1ncnc2sc3c(c12)CC[C@H](C(=O)N(C)CC(=O)N(C)C)C3 [Example 42, (7S)—N-[2-(Dimethylamino)-2-oxoethyl]-4-[(5-methoxy-1,2,3-benzothiadiazol-6-yl)amino]-N-methyl-5,6,7,8-tetrahydro[1]benzothieno[2,3-d]pyrimidine-7-carboxamide]",0.8
21,"COc1cc2nnsc2cc1Nc1ncnc2sc3c(c12)CC[C@H](C(=O)N(C)CCCN(C)C)C3 [Example 43, (7S)—N-[3-(Dimethylamino)propyl]-4-[(5-methoxy-1,2,3-benzothiadiazol-6-yl)amino]-N-methyl-5,6,7,8-tetrahydro[1]benzothieno[2,3-d]pyrimidine-7-carboxamide]",1.7
